In patent US4740233A, “Substituted 1,2,4-triazolo[1,5-a]-pyrimidine-2-sulfonamides and compositions and methods of controlling undesired vegetation and suppressing the nitrification of ammonium nitrogen in soil” (The Dow Chemical Company, priority 1986, dated 1988):

What was measured:
rape [1] = test: Postemergent control of plant species; format: in vivo, Brassica napus; details: Brassica napus, post-emergence, 336 h, read-out: percent postemergent control
Procedure, shortened: (§1)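 Growth reduction versus untreated plants of each species, scored about two weeks after spraying, defines control here. Test emulsions contained compound in acetone diluted 1:1 into water bearing 0.1% surfactant; plants were treated at the 2-4 leaf stage in the greenhouse.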

soybean [2] = test: Postemergent control of plant species; format: in vivo, Glycine max.; details: Glycine max, post-emergence, 336 h, read-out: percent postemergent control
Procedure, shortened: as §1

cocklebur = test: Postemergent control of plant species; format: in vivo, Xanthium spp.; details: Xanthium strumarium, post-emergence, 336 h, read-out: percent postemergent control
Procedure, shortened: as §1

pigweed [3] = test: Postemergent control of plant species; format: in vivo, Amaranthus spp.; details: Amaranthus retroflexus, post-emergence, 336 h, read-out: percent postemergent control
Procedure, shortened: as §1

velvetleaf [4] = test: Postemergent control of plant species; format: in vivo, Abutilon theophrasti; details: Abutilon theophrasti, post-emergence, 336 h, read-out: percent postemergent control
Procedure, shortened: as §1

corn [5] = test: Postemergent control of plant species; format: in vivo, Zea mays; details: Zea mays, post-emergence, 336 h, read-out: percent postemergent control
Procedure, shortened: as §1

rice [6] = test: Postemergent control of plant species; format: in vivo, Oryza sativa; details: Oryza sativa, post-emergence, 336 h, read-out: percent postemergent control
Procedure, shortened: as §1

sorghum = test: Postemergent control of plant species; format: in vivo, Sorghum vulgare; details: Sorghum, post-emergence, 336 h, read-out: percent postemergent control
Procedure, shortened: as §1

barnyardgrass [7] = test: Postemergent control of plant species; format: in vivo, Echinochloa crusgalli; details: Echinochloa crus-galli, post-emergence, 336 h, read-out: percent postemergent control
Procedure, shortened: as §1

yellow foxtail = test: Postemergent control of plant species; format: in vivo, Setaria lutescens; details: Setaria, post-emergence, 336 h, read-out: percent postemergent control
Procedure, shortened: as §1

johnson grass [8] = test: Postemergent control of plant species; format: in vivo, Sorghum halepense; details: Sorghum halepense, post-emergence, 336 h, read-out: percent postemergent control
Procedure, shortened: as §1

wild oats [9] = test: Postemergent control of plant species; format: in vivo, Avena fatua; details: Avena fatua, post-emergence, 336 h, read-out: percent postemergent control
Procedure, shortened: as §1

yellow nutsedge = test: Postemergent control of plant species; format: in vivo, Cyperus esculentus; details: Cyperus, post-emergence, 336 h, read-out: percent postemergent control
Procedure, shortened: as §1

cotton = test: Preemergent control of plant species; format: in vivo, Gossypium spp.; details: Gossypium hirsutum, pre-emergence, 336 h; 0.25 lb/acre; read-out: percent preemergent control
Procedure, shortened: (§2)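 Seeds planted in good agricultural soil beds; active ingredients then applied to the bed surface as aqueous emulsion at listed rates. Beds kept two weeks in greenhouse with watering. Control scored against water-treated beds.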

rape [10] = test: Preemergent control of plant species; format: in vivo, Brassica napus; details: Brassica napus, pre-emergence, 336 h; 0.25 lb/acre; read-out: percent preemergent control
Procedure, shortened: as §2

soybean [11] = test: Preemergent control of plant species; format: in vivo, Glycine max.; details: Glycine max, pre-emergence, 336 h; 0.25 lb/acre; read-out: percent preemergent control
Procedure, shortened: as §2

sugar beet = test: Preemergent control of plant species; format: in vivo, Beta saccharifera; details: Beta vulgaris, pre-emergence, 336 h; 0.25 lb/acre; read-out: percent preemergent control
Procedure, shortened: as §2

jimsonweed = test: Preemergent control of plant species; format: in vivo, Datura stramonium; details: Datura stramonium, pre-emergence, 336 h; 0.25 lb/acre; read-out: percent preemergent control
Procedure, shortened: as §2

annual morning glory = test: Preemergent control of plant species; format: in vivo, Ipomoea spp.; details: Ipomoea, pre-emergence, 336 h; 0.25 lb/acre; read-out: percent preemergent control
Procedure, shortened: as §2

pigweed [12] = test: Preemergent control of plant species; format: in vivo, Amaranthus spp.; details: Amaranthus retroflexus, pre-emergence, 336 h; 0.25 lb/acre; read-out: percent preemergent control
Procedure, shortened: as §2

velvetleaf [13] = test: Preemergent control of plant species; format: in vivo, Abutilon theophrasti; details: Abutilon theophrasti, pre-emergence, 336 h; 0.25 lb/acre; read-out: percent preemergent control
Procedure, shortened: as §2

corn [14] = test: Preemergent control of plant species; format: in vivo, Zea mays; details: Zea mays, pre-emergence, 336 h; 0.25 lb/acre; read-out: percent preemergent control
Procedure, shortened: as §2

rice [15] = test: Preemergent control of plant species; format: in vivo, Oryza sativa; details: Oryza sativa, pre-emergence, 336 h; 0.25 lb/acre; read-out: percent preemergent control
Procedure, shortened: as §2

wheat = test: Preemergent control of plant species; format: in vivo, Triticum aestivum; details: Triticum aestivum, pre-emergence, 336 h; 0.25 lb/acre; read-out: percent preemergent control
Procedure, shortened: as §2

barnyardgrass [16] = test: Preemergent control of plant species; format: in vivo, Echinochloa crusgalli; details: Echinochloa crus-galli, pre-emergence, 336 h; 0.25 lb/acre; read-out: percent preemergent control
Procedure, shortened: as §2

crabgrass = test: Preemergent control of plant species; format: in vivo, Digitaria spp.; details: Digitaria sanguinalis, pre-emergence, 336 h; 0.25 lb/acre; read-out: percent preemergent control
Procedure, shortened: as §2

johnson grass [17] = test: Preemergent control of plant species; format: in vivo, Sorghum halepense; details: Sorghum halepense, pre-emergence, 336 h; 0.25 lb/acre; read-out: percent preemergent control
Procedure, shortened: as §2

wild oats [18] = test: Preemergent control of plant species; format: in vivo; details: Avena fatua, pre-emergence, 336 h; 0.25 lb/acre; read-out: percent preemergent control
Procedure, shortened: as §2

Cc1cc(C)n2nc(S(=O)(=O)Nc3ccc(Cl)cc3C(F)(F)F)nc2n1 [Compound 34]
plant injury at 500 ppm (rape [1]): 100% | plant injury at 500 ppm (soybean [2]): 90% | pest or weed control at 500 ppm (cocklebur): 100% | pest or weed control at 500 ppm (pigweed [3]): 100% | pest or weed control at 500 ppm (velvetleaf [4]): 100% | plant injury at 500 ppm (corn [5]): 0% | plant injury at 500 ppm (rice [6]): 0% | plant injury at 500 ppm (sorghum): 60% | pest or weed control at 500 ppm (barnyardgrass [7]): 0% | pest or weed control at 500 ppm (yellow foxtail): 0% | pest or weed control at 500 ppm (johnson grass [8]): 20% | pest or weed control at 500 ppm (wild oats [9]): 0% | pest or weed control at 500 ppm (yellow nutsedge): 60% | plant injury at 280.212 g/ha (cotton): 80% | plant injury at 280.212 g/ha (rape [10]): 95% | plant injury at 280.212 g/ha (soybean [11]): 80% | plant injury at 280.212 g/ha (sugar beet): 90% | pest or weed control at 280.212 g/ha (jimsonweed): 0% | pest or weed control at 280.212 g/ha (annual morning glory): 20% | pest or weed control at 280.212 g/ha (pigweed [12]): 50% | pest or weed control at 280.212 g/ha (velvetleaf [13]): 80% | plant injury at 280.212 g/ha (corn [14]): 0% | plant injury at 280.212 g/ha (rice [15]): 40% | plant injury at 280.212 g/ha (wheat): 0% | pest or weed control at 280.212 g/ha (barnyardgrass [16]): 20% | pest or weed control at 280.212 g/ha (crabgrass): 0% | pest or weed control at 280.212 g/ha (johnson grass [17]): 80% | pest or weed control at 280.212 g/ha (wild oats [18]): 0%
